A melting point compilation (Tetko et al.; mined from patent text by program, amines drawn as free bases though some values may be those of a salt)

SMILES | melting point [°C]
Cc1ccc(NC(=O)CCCC2CCCCC2)cc1NC(=O)c1ccc(O)cc1 | 159 to 160
CCNc1nc(C)c(-c2ccnc(Nc3ccc(N4CCNCC4)cc3)n2)s1 | 245 to 247
CC1Oc2cc(CN3CCN(c4ccncc4)CC3)ccc2NC1=O (configuration not stated) | 130 to 134
Cc1oc(-c2ccc3ccccc3c2)nc1COc1ccc(COc2ncccc2CC(=O)O)cc1 | 155 to 156
CCCCc1nc2cccc(C(=O)OC)c2c(=O)n1Cc1ccc(-c2ccccc2-c2nnn[nH]2)cc1 | 133 to 143
NC(=O)c1nn(-c2c(Cl)cc(C(F)(F)F)cc2Cl)c(N)c1S(=O)(=O)C(F)(F)F | 217
COc1cccc(NC(=O)NC2C(=O)N(CC34CC5CC(CC(C5)C3)C4)c3ccccc3N(c3ccccc3)C2=O)c1 (configuration not stated) | 267 to 268
COc1cc(COc2nn(-c3ccccc3)cc2/C=C/c2coc(C(C)(C)C)n2)ccc1OCc1nc(-c2ccc(CC(=O)O)cc2)oc1C | 104 to 106
Brc1ccc(-c2coc3ccc(-c4ccccc4)cc23)cc1 | 90 to 92
C=CCNC(=O)N(O)Cc1c(C)n(C(=O)c2ccc(Cl)cc2)c2ccc(OC)cc12 | 148 to 149
CC(=O)Nc1ccc(OCCCCO[N+](=O)[O-])cc1 | 92 to 98
CS(=O)(=O)OCCC1c2ccccc2C(=O)N1c1ccccc1 (configuration not stated) | 100 to 101
CCc1nc2c(N)nc3ccc(-c4cccnc4)cc3c2n1CC(C)C | > 250
COc1cc2ncnc(N3CCc4ccc(C(C)C)cc43)c2cc1OC | 128 to 129
O=C(O)COCCCCS(=O)(=O)c1cnc(-c2ccccc2)c(-c2ccccc2)n1 | 123 to 125
Clc1ccc([C@@H]2CNc3ccccc3S2)cc1 | 151 to 153
CCCc1ccc(S(=O)(=O)n2c(CCC(=O)OC)cc3cc(Cl)ccc32)cc1 | 85 to 88
O=c1[nH][nH]c(=O)c2c(O)c3cc(Cl)ccc3nc12 | 228 to 230
CCCCCCC/C=C/C(=O)NC | 60 to 63
O=C(Oc1cccc2ccccc12)n1c2c(c(=O)n(C3CCCCO3)c1=O)CCC2 (configuration not stated) | 160
COc1cccc(CCC(=O)C2C(=O)CCC2=O)c1O | 108 to 109
O=C1CC(SCc2ccccc2)C(O)(c2ccccc2)C(SCc2ccccc2)C1 (configuration not stated) | 120
Nc1cc(Oc2cccc(O)c2)ccc1[N+](=O)[O-] | 137
O=C(Nc1ccc(Cl)cn1)c1cc(Cl)ccc1NCC1CCN(C2CCSC2)CC1 (configuration not stated) | 178 to 181

SMILES | melting point [°C]
NCC1Cc2cc(-c3cccc(Cl)c3)cc(F)c2O1 (configuration not stated) | > 250
Cc1cc(-n2ccnc2)c2cccc(OCc3c(Cl)ccc(S(=O)(=O)N4CCC[C@H]4C(=O)NCc4ccccc4)c3Cl)c2n1 | 116
CN1C(=O)[C@H](NC(=O)CCc2ccccc2Cl)N=C(c2ccccc2)c2ccccc21 | 158 to 160
Cn1c2ccccc2c2nc3cccc(C=O)c3nc21 | 219 to 221
OCCCCCNc1nccc2cc3c(cc12)OCO3 | 132 to 134
COc1cccc(-c2cn(-c3ccc(C(=O)O)cc3)nn2)c1 | 276 to 277
O=C1N(N2CCOCC2)c2ccccc2C1(Cc1ccncc1)c1ccccc1 (configuration not stated) | 190 to 192
CCC=C(c1ccccc1N1CCCCC1)C(C(N)=O)c1ccc(C(=O)OCC)cc1 (configuration not stated) | 115 to 117
COc1ccc2nn(C)cc2c1C1CC1CNC(C)=O (configuration not stated) | 104 to 105
C=CCOc1ccc(C(=O)C#Cc2c[nH]c3ccccc23)c(O)c1 | 228 to 230
NS(=O)(=O)c1ccc(-c2cccc(-c3nc(-c4ccc(F)cc4)cc(C(F)(F)F)n3)c2)s1 | 228
CCCCOCCOc1ccc(-c2ccc(N3CC=CC3)c(C=O)c2)cc1 | 79 to 81
CC(C)C(=O)C1(S(=O)(=O)c2ccc(O)cc2)CC1 | 111 to 112
O=C1N(CCCOCc2ccccc2)c2ccccc2C12COc1cc3c(cc12)CCO3 (configuration not stated) | 112 to 113
Nc1cc(C(=O)O)cc(OCc2ccccn2)c1C(=O)c1ccccc1 | 212 to 213
CC(=O)OC1CCc2c(C3=C(c4cn(C)c5ccccc45)C(=O)OC3=O)c3ccccc3n2C1 (configuration not stated) | 272 to 275
CCCn1nc(C)c([N+](=O)[O-])c1C(N)=O | 136 to 138
CCC(Oc1cncc(Br)c1)C(=O)O (configuration not stated) | 100 to 102
COc1cc(I)c(C(=O)OC(C)COC(=O)c2ccc3c(c2I)OCO3)cc1OC (configuration not stated) | 131 to 133
CCCCSCC(=O)c1ccc2c(c1)n(C)c(=O)n2C | 80 to 81
CC(C)(C)C(NC(=O)c1cccc(Br)c1)Nc1c(Nc2cccnc2Cl)c(=O)c1=O (configuration not stated) | 257 to 259
O=S(=O)(Nc1ncnc(Cl)c1Cc1cccc2ccccc12)c1ccc(Cl)cc1 | 202 to 203
COc1cc(COc2cc3ncnc(Nc4ccc(Cl)cc4F)c3cc2OC)ccn1 | 202 to 204
